# Measurements published in paper PMC12298104, “mRNA Expression of Two Colon Enzymes in Pre-Pubertal Gilts During a 42-Day Exposure to Zearalenone” (Toxins, 2025).
# What was measured:
# [1] = parameters: method as in PMID 25283475; settings: value at the time of designing the experiment; 10 times higher than the current dose; cited from earlier work
# GSTπ1 gene = assay: GSTπ1 mRNA expression in the ascending and descending colon (qPCR); assay type: in vivo, pre-pubertal gilts; settings: for difference in GSTπ1 gene expression between groups C and E: p ≤ 0.05; for average expression of the GSTπ1 gene during the entire experiment (expression ratio vs control at start = 1.00): group E
# Protocol: (§1) Group E gilts were given ZEN orally at a dose of 40 μg ZEN/kg BW (Table 1). At the time of designing the experiment, the above value was equivalent to the no-observed-adverse-effect level (NOAEL) stipulated in the EFSA guidelines, which is 10 times higher than the current dose. Animals from group C received a placebo. The experiment lasted 42 days. The ZEN dose was adjusted to the BW of group E animals. Zearalenone was administered in enteric-coated capsules to avoid problems with uneven food intake. On each day of the experiment, the mycotoxin was administered orally before the morning feeding. Feed was used as a vector. Group C gilts received a placebo, i.e., the same gastro-resistant capsules with the vector, but without ZEN. Zearalenone was dissolved in 500 μL of 96% C2H5OH (96% ethyl, SWW 2442-90, Polskie Odczynniki Chemiczne SA, Gliwice, Poland) to obtain the dose needed (adjusted to BW). The obtained solutions were stored at a temperature of 20 °C for 12 h. Pre-pubertal gilts were weighed once a week to adjust ZEN doses to the needs of each animal. Three gilts from each experiment group were killed on day 7 (1st week of exposure), 14 (2nd week of exposure), 21 (3rd week of exposure), 28 (4th week of exposure), 35 (5th week of exposure), and 42 (6th week of exposure). On each of the above dates, the animals were euthanized by intravenous administration of sodium pentobarbital (Fatro, Ozzano Emilia, BO, Italy). Tissue samples (approx. 1.0 cm × 1.5 cm) from the middle parts of both examined colon sections were collected immediately after cardiac arrest. Samples were washed with phosphate buffer and prepared for toxicological analyses and gene expression assessment. Laboratory analyses were conducted within one month after tissue sampling.
# (§2) Colon tissue samples were collected immediately after cardiac arrest. According to the manufacturer’s instructions (Sigma-Aldrich, Taufkirchen, Germany), samples were stored in RNAlater solution.
# (§3) According to the manufacturer’s protocol, total RNA was extracted from tissues preserved in RNAlater (ca. 20 mg per sample; […] in each group) using the Total RNA Mini kit (A&A Biotechnology, Gdynia, Poland). RNA samples were incubated in ribonuclease-free DNAse I (Roche Diagnostics, Mannheim, Germany) to prevent contamination with genomic DNA. Overall RNA quality and purity from all samples were assessed using a BioPhotometer (Eppendorf, Germany) and the results were used for cDNA synthesis using the RevertAid™ First Strand cDNA Synthesis Kit (Fermentas, Burlington, ON, Canada). According to the manufacturer’s protocol, the reaction was performed using a cDNA synthesis reaction mixture for each sample, which consisted of 1 µg of total RNA and 0.5 µg of oligo (dT)18 primers. The first synthesized cDNA chain was stored at −20 °C pending further analysis.
# (§4) Real-time PCR primers for target mRNA were designed using the Primer-BLAST tool based on reference species (Table 4). Real-time PCR was performed on an ABI 7500 Real-Time PCR system (Applied Biosystems, Foster City, CA, USA) in single plex mode; further procedures were performed according to the manufacturer’s instructions. Each PCR reaction tube contained 10 μL of the FastStart SYBR Green Master ROX mix (Roche Diagnostics), 0.25–0.5 μM of each primer (forward and reverse; Table 4), and 1 μL of the previously synthesized cDNA as a template, supplemented with PCR-grade H2O to a final volume of 20 μL. […]
# [2] = cited from earlier work
# [3] = Concentrations of ZEN, α-ZEL and β-ZEL in colon tissue (immunoaffinity extraction, LC-MS/MS); assay type: in vivo, pre-pubertal gilts; settings: for difference in mean ZEN levels between ascending and descending colon / difference in ZEN concentration in the descending colon: p ≤ 0.01; for ZEN metabolites in the distal colon: gilts given 40 μg ZEN/kg BW orally daily, 42 days
# Protocol: as §1
# Zearalenone, α-ZEL, and β-ZEL were extracted from tissue samples using immunoaffinity columns (Zearala-TestTM Zearalenone Testing System, G1012, VICAM, Watertown, MA, USA) according to the manufacturer’s instructions. The eluates were placed in a water bath at 50 °C and evaporated in nitrogen stream. Until chromatographic analysis, the dry residues were stored at −20 °C. The results were verified by mass spectrometry and the procedure was monitored using internal standards.
# ZEN, α-ZEL, and β-ZEL tissue concentrations were determined using an Agilent 1260 liquid chromatograph (LC) and an Agilent 6470 mass spectrometer (MS). The prepared samples were analyzed using an Agilent ZORBAX high-resolution HPLC column (Agilent Eclipse Plus C18; 2.1 × 50 mm, 1.8 µm) in a gradient elution program. The mobile phase consisted of 0.1% (v/v) formic acid dissolved in water (solvent A) and 0.1% (v/v) formic acid dissolved in acetonitrile (solvent B). The gradient program began with 20% B, which was increased to 100% B after 4.0 min and decreased to 20% B after 0.1 min.
# Mycotoxins were quantified using external standards and were expressed in ppb (ng/mL). Calibration standards are fitted to the detector to eliminate detector influences that may reduce test sensitivity. Following the procedure described for the remaining samples, calibration standards were dissolved in the matrix samples (matrix-matched calibration). The material for the preparation of calibration standards was free from mycotoxins. The signal-to-noise ratio (3:1) was […] for ZEN, α-ZEL, and β-ZEL. The LOQ was defined as three times the LOD.
# Electrospray ionization (ESI) mass spectrometry was performed in negative ion mode. MS/MS indices were optimized for all compounds. Using a six-level calibration curve, linearity was assessed.
# The results were statistically processed at the Department of Discrete Mathematics and Theoretical Computer Science, Faculty of Mathematics and Computer Science of the University of Warmia and Mazury in Olsztyn. […]
# CYP1A1 gene = assay: CYP1A1 mRNA expression in the ascending and descending colon (qPCR); assay type: in vivo, pre-pubertal gilts; parameters: difference in CYP1A1 gene expression between groups C and E: scale not given here; settings: for mean CYP1A1 gene expression during the entire experiment (expression ratio vs control at start = 1.00): group E
# Protocol: as §1, §2, §3
# as §4, with “μL. The reaction was performed under the following standard thermal conditions: 95 °C for 10 min, followed by 45 cycles of 95 °C for 15 s and 60 °C for 1 min. Negative water controls (NTCs) were included to rule out cross-contamination. The quality of PCR products was verified by melting curve analysis, followed by agarose gel electrophoresis. The specificity of the designed primer pairs was confirmed by sequencing the obtained PCR products ([…]).” for “μL.”
# [4] = Clinical signs during the 42-day exposure; assay type: in vivo, pre-pubertal gilts; settings: 40 μg ZEN/kg BW orally daily for 42 days
# Protocol: as §1, with “On each of the above dates, the animals were euthanized by intravenous administration of sodium pentobarbital (Fatro, Ozzano Emilia, BO, Italy). Tissue samples (approx. 1.0 cm × 1.5 cm) from the middle parts of both examined colon sections were collected immediately after cardiac arrest. Samples were washed with phosphate buffer and prepared for toxicological analyses and gene expression assessment. Laboratory analyses were conducted within one month after tissue sampling.” left out
compound,measurement,setting,value
"C[C@H]1CCCC(=O)CCC/C=C/c2cc(O)cc(O)c2C(=O)O1 [ZEN, Zearalenone]",no-observed-adverse-effect level (NOAEL),[1],40 μg ZEN/kg BW
same,difference in GSTπ1 gene expression between groups C and E,"GSTπ1 gene; ascending colon, week 1, higher in group C",0.35
same,difference in GSTπ1 gene expression between groups C and E,"GSTπ1 gene; descending colon, week 2, lower in group E",0.27
same,difference in GSTπ1 gene expression between groups C and E,"GSTπ1 gene; descending colon, week 6, lower in group E",0.34
same,average expression of the GSTπ1 gene during the entire experiment (expression ratio vs control at start = 1.00),"GSTπ1 gene; ascending colon, group C 0.96",0.39
same,average expression of the GSTπ1 gene during the entire experiment (expression ratio vs control at start = 1.00),"GSTπ1 gene; descending colon, group C 1.07",0.94
same,solubility in fats and alkaline aqueous solutions,[2]; fats and alkaline aqueous solutions,soluble in fats and alkaline aqueous solutions
same,solubility in water,[2]; water,almost insoluble in water
same,"ZEN strength in the ascending colon, on average","[3]; 40 μg ZEN/kg BW orally daily, average over each week of exposure (weeks 1-6)",2.09 ng ZEN/g
same,"mean ZEN strength in the descending colon, on average","[3]; 40 μg ZEN/kg BW orally daily, first three weeks of exposure",6.4 ng ZEN/g
same,concentration at 4 week of exposure,"[3]; female, pig, descending colon tissue, po, 40 μg ZEN/kg BW orally daily, week 4",205 ng/g
same,concentration at 5 week of exposure,"[3]; female, pig, descending colon tissue, po, 40 μg ZEN/kg BW orally daily, week 5",177 ng/g
same,concentration at 6 week of exposure,"[3]; female, pig, descending colon tissue, po, 40 μg ZEN/kg BW orally daily, week 6",112 ng/g
same,difference in mean ZEN levels between ascending and descending colon,[3]; week 4,200.33 ng ZEN/g
same,difference in ZEN concentration in the descending colon,[3]; week 4 vs week 1,200.31 ng ZEN/g
same,difference in ZEN concentration in the descending colon,[3]; week 4 vs week 2,198.21 ng ZEN/g
same,difference in ZEN concentration in the descending colon,[3]; week 4 vs week 3,197.44 ng ZEN/g
same,difference in mean ZEN levels between ascending and descending colon,[3]; week 5,173.61 ng ZEN/g
same,difference in ZEN concentration in the descending colon,[3]; week 5 vs week 1,172.31 ng ZEN/g
same,difference in ZEN concentration in the descending colon,[3]; week 5 vs week 2,170.21 ng ZEN/g
same,difference in mean ZEN levels between ascending and descending colon,[3]; week 6,109.55 ng ZEN/g
same,difference in CYP1A1 gene expression between groups C and E,"CYP1A1 gene; ascending colon, week 4, p ≤ 0.01",0.98
same,difference in CYP1A1 gene expression between groups C and E,"CYP1A1 gene; ascending colon, week 5, p ≤ 0.01",1.16
same,difference in CYP1A1 gene expression between groups C and E,"CYP1A1 gene; descending colon, week 1, higher in group C, p ≤ 0.01",0.41
same,difference in CYP1A1 gene expression between groups C and E,"CYP1A1 gene; descending colon, week 2, higher in group C, p ≤ 0.05",0.14
same,difference in CYP1A1 gene expression between groups C and E,"CYP1A1 gene; descending colon, week 3, higher in group E, p ≤ 0.05",0.13
same,difference in CYP1A1 gene expression between groups C and E,"CYP1A1 gene; descending colon, week 5, higher in group C, p ≤ 0.05",0.24
same,mean CYP1A1 gene expression during the entire experiment (expression ratio vs control at start = 1.00),"CYP1A1 gene; ascending colon, group C 0.99",0.73
same,mean CYP1A1 gene expression during the entire experiment (expression ratio vs control at start = 1.00),"CYP1A1 gene; descending colon, group C 0.57",0.43
same,clinical signs of zearalenone mycotoxicosis,[4],No clinical signs
"C[C@H]1CCC[C@H](O)CCC/C=C/c2cc(O)cc(O)c2C(=O)O1 [α-ZEL, α-zearalenol]",ZEN metabolites in the distal colon,[3],no ZEN metabolites (α-ZEL and β-ZEL) were found
"C[C@H]1CCC[C@@H](O)CCC/C=C/c2cc(O)cc(O)c2C(=O)O1 [β-ZEL, β-zearalenol]",ZEN metabolites in the distal colon,[3],no ZEN metabolites (α-ZEL and β-ZEL) were found
